Assay results reported in PMC8308784, “Novel Purine Chemotypes with Activity against Plasmodium falciparum and Trypanosoma cruzi” (Pharmaceuticals, 2021).

Columns and labels:
[1] = tested on: P. falciparum 3D7; assay: P. falciparum primary screening at three fixed concentrations; type: cell-based; settings: average of at least three experiments; for activity at 1 µM / activity at 10 µM / activity at 100 µM: Plasmodium falciparum, read-out: Primary screening, parasite growth relative to the negative control; for activity at 1 µM: 3D7, compound at 1 µM; for activity at 10 µM: 3D7, compound at 10 µM; for activity at 100 µM: 3D7, compound at 100 µM
Description: Apicomplexan parasite cultures were maintained at 3% hematocrit under an atmosphere of 37 °C in 93% N2, 5% CO2, and 2% O2, following standard methods. Synchronized cultures were obtained via 5% sorbitol lysis.
[…] Conditions were tested in triplicate for every concentration, and the test was repeated when the standard deviation was above 10% for any concentration. Z-values varied between 0.83 and 0.98 in the different plates analyzed. Selected compounds (12.3% potential hit rate) were further analyzed via standard growth inhibition assays, carried out as previously described in [54]. Briefly, parasitemia was adjusted to 1–1.3%, with >90% rings after sorbitol synchronization. Two hundred microliters of parasite culture were plated in 96-well microplates and incubated for 48 h at 37 °C in the presence of decreasing concentrations of the tested compounds, in triplicate. Parasitemia was determined by fluorescence-assisted cell sorting (FACS). Non-infected RBCs and samples containing parasitized RBCs (including controls with DMSO as carrier solvent) were diluted in PBS to a final concentration of ~1–10 × 10^6 cells/mL. The cell suspension was stained with SYTO 11 (0.5 mM stock in DMSO, Thermo Fisher Scientific, Waltham, MA, USA), to a final concentration of 0.5 μM. Samples were analyzed in a Becton Dickinson FACSCalibur. Sample excitation was carried out using a 488-nm, air-cooled argon-ion laser at a power of 15 mW, using forward and side scatter to gate the RBC population, and SYTO 11 green fluorescence (530 nm, FITC filter) was collected in a logarithmic scale. The single-cell population was selected on a forward–side scattergram, and the green fluorescence from this population was analyzed. Parasitemia was expressed as the number of parasitized cells per 100 erythrocytes.
(§1) Absorbance values derived from the anti-T. cruzi assays and fluorescence values from the anti-P. falciparum and cell toxicity assays were normalized to the controls. In the primary screening at three fixed doses, the compounds’ inhibitory activity was expressed as a percentage of the negative control (100% parasitic growth). In dose–response assays, the compounds’ IC50 and TC50 values were determined with GraphPad Prism 7 software (version 7.00, 2016), using a non-linear regression analysis model defined by the following equation: Y=100 ÷(1+10^((LogIC50−X)×HillSlope))

[2] = tested on: T. cruzi Tulahuen strain expressing β-galactosidase; assay: T. cruzi primary screening at three fixed concentrations; type: cell-based; settings: average of at least three independent experiments; for Primary screening, growth inhibition values at 1 µM: compound at 1 µM; for Primary screening, growth inhibition values at 10 µM: compound at 10 µM
Description: T. cruzi parasites from the Tulahuen strain (discrete typing unit (DTU) VI) expressing β-galactosidase were maintained in culture by the infection of LLC-MK2 cells in DMEM supplemented with 2% FBS and 1% penicillin–streptomycin–glutamine (PSG), as described in [52]. When free-swimming trypomastigotes were released to the culture medium, they were centrifuged for 7 min at 2500 rpm and allowed to swim out of the pellet. Trypomastigotes were used to maintain the parasite cycle, or for the performance of the antiparasitic assays.
[…] Conditions were tested in triplicate for every concentration. Z-values varied between 0.81 and 0.92 in the different plates analyzed. Selected compounds (34.6% potential hit rate) were further analyzed via standard growth inhibition assays. The Z-values of dose–response assays correlated with those previously reported. For both assays, Vero cells and trypomastigotes from the Tulahuen T. cruzi strain expressing β-galactosidase were harvested, centrifuged, and resuspended in DMEM without phenol red supplemented with 1% PSG, 2% FBS, 1 mM sodium pyruvate, and 25 mM HEPES. Vero cells and trypomastigotes were counted, diluted at a concentration of 1 × 10^6 cells/mL each, and mixed 1:1 (v/v). Then, 100 μL of that mixture was added per well to the plates already containing the compounds. Each well contained 50,000 host cells and 50,000 parasites, i.e., multiplicity of infection (MOI) = 1. BNZ was used as control of maximal drug growth inhibition in each round, whereas each plate contained its own negative control (maximum parasite growth; Vero cells plus parasites without drugs) and positive control (minimum parasite growth; trypomastigote forms alone marking an enzymatic zero time or baseline galactosidase activity). After four days at 37 °C, 50 µL of a PBS solution containing 0.25% NP40 and 500 µM chlorophenol red-β-D-galactopyranoside (CPRG) substrate were added per well [32]. Plates were incubated at 37 °C for 4 h, and their absorbance read out at 590 nm using an Epoch Gene5 spectrophotometer.
as §1

SMILES | Primary screening, parasite growth relative to the negative control ([1]; compound at 1 µM) | Primary screening, parasite growth relative to the negative control ([1]; compound at 10 µM) | Primary screening, parasite growth relative to the negative control ([1]; compound at 100 µM) | Primary screening, growth inhibition values at 1 µM [2] | Primary screening, growth inhibition values at 10 µM [2] | activity at 1 µM [1] | activity at 10 µM [1] | activity at 100 µM [1]
Cc1nc2c(NC(C)(C)C)ncnc2n1C(C)(C)C [Compound 2A] | 110.87% | 112.26% | 30.73% | 96.86 | 88.71 |  |  | 
Cc1nc2c(OCc3ccccc3)ncnc2n1N(C)C [Compound 4M] | 100.27% | 101.23% | 88.99% | 88.68 | 89.08 |  |  | 
CN(C)n1c(-c2ccccc2)nc2c(OCc3ccccc3)ncnc21 [Compound 4] | 97.86% | 97.42% | 96.42% | 94.81 | 89.88 |  |  | 
c1ccc(COc2ncnc3c2ncn3N2CCCCC2)cc1 [Compound 13H] | 100.86% | 97.31% | 67.76% | 92.39 | 93.99 |  |  | 
Cc1nc2c(OCc3ccccc3)ncnc2n1N1CCCCC1 [Compound 13M] | 101.41% | 100.79% | 87.03% | 91.73 | 92.01 |  |  | 
Cc1nc2c(OCc3ccccc3)ncnc2n1N1CCOCC1 [Compound 22] | 97.98% | 78.53% | 73.65% |  |  |  |  | 
c1ccc(COc2ncnc3c2ncn3N2CCOCC2)cc1 [Compound 23] | 101.16% | 104.67% | 98.97% | 93.82 | 94.90 |  |  | 
CCOc1ncnc2c1ncn2C(C)C [MJ1] | 102.27% | 99.79% | 94.06% | 94.41 | 97.93 |  |  | 
Cc1nc2c(OCc3ccccc3)ncnc2n1C(C)C [MJ5] |  |  |  | 89.81 | 90.91 | 100% | 94.6% | 88.5%
CCOc1ncnc2c1ncn2Cc1ccccc1 [MJ7] |  |  |  | 79.69 | 95.54 | 104% | 105% | 53.8%
CC(C)Oc1ncnc2c1ncn2C(C)C [MJ16] |  |  |  | 100.79 | 96.93 | 111% | 115% | 102%
